Legend:
endogenous heparanase [1] = assay: Immunoblot of endogenous heparanase protein in micromass cultures; assay type: cell-based, mouse
Protocol: ATDC5 cells were grown to 100% confluence in 6-well plates and treated with indicated concentrations of Surfen, bis-2-methyl-4-amino-quinolyl-6-carbamide. […] The membranes were re-blotted with antibodies to α-tubulin (Sigma T-5168, 1:2000) for normalization, and band intensities were quantified by computer-assisted image analysis.

heparanase mRNA = assay: Semi-quantitative RT-PCR of heparanase mRNA in micromass cultures; assay type: cell-based, mouse
Protocol: (§1) Micromass cultures were prepared from the mesenchymal cells of E11.5 mouse embryo limb buds (Ahrens et al. (1979) Dev. Biol., 69:436-50). Dissociated cells were suspended at a concentration of 5×10^6 cells/ml in DMEM containing 3% fetal bovine serum and antibiotics. Micromass cultures were initiated by spotting 20 μl of the cell suspensions (1.5×10^5 cells) onto the surface of 24-well tissue culture dishes. After a 90-minute incubation at 37° C. in a humidified CO2 incubator to allow for cell attachment, the cultures were supplied with 0.25 ml of medium. After 24 hours, medium supplemented with the indicated concentrations of Surfen (bis-2-methyl-4-aminoquinolyl-6-carbamide), bacterial heparitinase III (Sigma), recombinant human BMP2 (R&D Systems), recombinant human heparanase, or roneparstat (Sigma-Tau Research S.A.). Fresh reagents (drug and/or protein) were given with medium change every other day. Equivalent amounts of vehicle were added to control cultures. Cultures were stained with Alcian blue (pH 1.0) after four and six days to monitor chondrogenic cell differentiation by standard methods. […]
(§2) Total RNA was extracted from cells by the guanidine phenol method using TRIzol® reagent (Invitrogen) according to the manufacturer's protocols and measured using a NanoDrop. […] Band intensities were quantified by computer-assisted image analysis (ImageQuant™ TL, GE Healthcare).

endogenous heparanase [2] = assay: Immunoblot of endogenous heparanase protein in ATDC5 cultures; assay type: cell-based, mouse; conditions: compared with the micromass response
Protocol: ATDC5 cells, derived from mouse embryonal carcinoma, were cultured in 10 cm dishes with a 1:1 mixture of Dulbecco's modified Eagle's medium and Ham's F-12 (Life Technologies) supplemented with 5% fetal bovine serum (ATCC), 10 μg/ml human transferrin (Mediatech), […] sodium selenite (Mediatech), and 20 μg/ml insulin at 37° C. under 5% CO2. Experiments were conducted once cells reached confluence.
ATDC5 cells were grown to 100% confluence in 6-well plates and treated with indicated concentrations of Surfen, bis-2-methyl-4-amino-quinolyl-6-carbamide. Micromass cultures were treated with control vehicle, Surfen, human heparanase, roneparstat, or rhBMP2. At specified time points, total cellular proteins were harvested in SDS-PAGE sample buffer, electrophoresed on 4-15% SDS-Bis-Tris gels (40 μg per lane) and transferred to PVDF membranes (Invitrogen). Membranes were incubated overnight at 4° C. with dilutions of antibodies against phospho-Smad1/5/8 (Cell Signaling Technology 9511, 1:1000), Smad1 (Abcam 63439, 1:500) or human heparanase (Abcam 59787, 1:750). Enhanced chemiluminescent immunoblotting detection system (Pierce) was used to detect the antigen antibody complexes. The membranes were re-blotted with antibodies to α-tubulin (Sigma T-5168, 1:2000) for normalization, and band intensities were quantified by computer-assisted image analysis.

[3] = system: ADTC5 chondrogenic cell line; conditions: Brown et al. 2008; cited from earlier work
[4] = mouse models of diabetic nephropathy; cited from earlier work
[5] = literature; cited from earlier work
[6] = system: mesenchymal cells of E11.5 mouse embryo limb buds; assay: Cell number, density and whole cellular RNA/DNA content of micromass cultures; assay type: cell-based
Protocol: as §1, with “methods. Micromass analysis was performed using ImageJ.” for “methods.”
(§3) ATDC5 cells were treated at day 0 with human heparanase (400 ng/ml) or a vehicle control. […] DNA isolation was performed using TRIzol® reagent (Invitrogen) according to the manufacturer's protocols and measured using a NanoDrop (ThermoScientific). ATDC5 migration was analyzed via a scratch test. […] The open scratch area was quantified with ImageJ (n=6/treatment group). In micromass cultures, migration was determined by expansion of the micromass itself from day 0 to day 4 or 6. The diameters of untreated micromasses (n=10) were measured and averaged for a baseline size. […]
as §2

[7] = system: mesenchymal cells of E11.5 mouse embryo limb buds; assay: Limb bud micromass chondrogenesis, alcian blue staining; assay type: cell-based; conditions: three concentrations up to 20 μg/ml; dose-dependent; day 4 and 6
Protocol: (§4) Micromass cultures were prepared from the mesenchymal cells of E11.5 mouse embryo limb buds (Ahrens et al. (1979) Dev. Biol., 69:436-50). Dissociated cells were suspended at a concentration of 5×10^6 cells/ml in DMEM containing 3% fetal bovine serum and antibiotics. Micromass cultures were initiated by spotting 20 μl of the cell suspensions […] onto the surface of 24-well tissue culture dishes. After a 90-minute incubation at 37° C. in a humidified CO2 incubator to allow for cell attachment, the cultures were supplied with 0.25 ml of medium. After 24 hours, medium supplemented with the indicated concentrations of Surfen (bis-2-methyl-4-aminoquinolyl-6-carbamide), bacterial heparitinase III (Sigma), recombinant human BMP2 (R&D Systems), recombinant human heparanase, or roneparstat (Sigma-Tau Research S.A.). Fresh reagents (drug and/or protein) were given with medium change every other day. Equivalent amounts of vehicle were added to control cultures. Cultures were stained with Alcian blue (pH 1.0) after four and six days to monitor chondrogenic cell differentiation by standard methods. Micromass analysis was performed using ImageJ. Images were made binary under an RGB threshold, and “Particle Analysis” was utilized to measure nodule size, number, and Alcian blue positive area.

heparanase = biological target: T1, heparanase (Homo sapiens, UniProt Q9Y251); conditions: Ritchie et al. 2011; cited from earlier work
T1 sequence (Q9Y251 158-543 limits assumed): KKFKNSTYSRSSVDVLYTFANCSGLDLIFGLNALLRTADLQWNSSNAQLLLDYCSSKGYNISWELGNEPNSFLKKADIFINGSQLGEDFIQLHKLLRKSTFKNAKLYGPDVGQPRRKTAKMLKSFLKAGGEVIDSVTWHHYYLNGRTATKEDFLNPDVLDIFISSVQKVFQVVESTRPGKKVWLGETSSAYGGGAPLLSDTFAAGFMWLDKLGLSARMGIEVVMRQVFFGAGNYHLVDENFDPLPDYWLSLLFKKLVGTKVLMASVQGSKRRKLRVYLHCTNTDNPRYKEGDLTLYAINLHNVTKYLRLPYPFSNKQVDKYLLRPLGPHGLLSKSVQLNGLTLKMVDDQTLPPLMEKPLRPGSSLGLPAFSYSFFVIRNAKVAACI
T1 sequence (Q9Y251 36-109 limits assumed): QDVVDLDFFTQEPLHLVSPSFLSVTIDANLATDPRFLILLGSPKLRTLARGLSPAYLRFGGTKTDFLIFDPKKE

[8] = system: myeloma and sarcoma cells; conditions: mouse models; Ritchie 2011, Cassinelli 2013; cited from earlier work
[9] = system: mesenchymal cells of E11.5 mouse embryo limb buds; assay: Micromass diameter (proliferation/migration of peripheral cells); assay type: cell-based; conditions: day 4 and day 6
Protocol: as §1, with “S.A.).” for “S.A.). Fresh reagents (drug and/or protein) were given with medium change every other day. Equivalent amounts of vehicle were added to control cultures. Cultures were stained with Alcian blue (pH 1.0) after four and six days to monitor chondrogenic cell differentiation by standard methods.”
as §3

[10] = system: collagen II (ColII), aggrecan (Agg) and Runx2; assay: Semi-quantitative RT-PCR of chondrogenic marker genes in micromass cultures; assay type: cell-based, mouse; conditions: micromass day 4 and 6
Protocol: as §4
Total RNA was extracted from cells by the guanidine phenol method using TRIzol® reagent (Invitrogen) according to the manufacturer's protocols and measured using a NanoDrop. One μg of total RNA was reverse transcribed using the SuperScript® III First-Strand Synthesis System (Life Technologies). Band intensities for semiquantitative PCR were normalized to GAPDH and compared while band intensities and cycle numbers were linear. […] Band intensities were quantified by computer-assisted image analysis (ImageQuant™ TL, GE Healthcare).

Cc1cc(N)c2cc(NC(=O)Nc3ccc4nc(C)cc(N)c4c3)ccc2n1 [Surfen, bis-2-methyl-4-aminoquinolyl-6-carbamide]
increase of endogenous heparanase protein levels (endogenous heparanase [1]; 7.5 μM, limb micromass cultures, immunoblot densitometry): about 8 fold | heparanase mRNA amounts (heparanase mRNA): increased | endogenous heparanase protein levels in ADTC5 cell cultures (endogenous heparanase [2]): very similar response

PI-88
alcian blue staining and cartilage gene expression [3]: only modest reductions

roneparstat
extent of albuminuria and renal damage [4]: markedly decreases | levels of endogenous heparanase vs untreated control cultures (endogenous heparanase [1]; micromass cultures, immunoblot): reduced | anticoagulant properties [5]: without anticoagulant properties | overall cell number and density (hematoxylin counterstaining) ([6]; after treatment of micromass cultures): had not changed significantly | whole cellular RNA and DNA content, treated vs untreated ([6]; day 4 and day 6): remained similar | whole cellular RNA and DNA content ([6]; maximal 20 μg/ml dose): minor decreases | formation of alcian blue-positive chondrogenic nodules [7]: strongly reduced | inhibitory activity on heparanase (heparanase): very strong inhibitory activity | growth of myeloma and sarcoma cells and concomitant angiogenesis [8]: interfere with the growth | overall diameter of micromass cultures vs control [9]: reduced the overall diameter | expression of Runx2 [10]: dose-dependently inhibited | expression of aggrecan (Agg) [10]: dose-dependently inhibited | expression of collagen II (ColII) [10]: dose-dependently inhibited

Reference: patent US20180110799A1, “Compositions and Methods for the Inhibition of Chondrogenesis” (The Children's Hospital of Philadelphia, priority 2014, published 2018)
